Article PMC6956362 (ACS Medicinal Chemistry Letters, 2019)

What was measured:
[1] = Stability in PBS, RP-HPLC analysis; format: physicochemical; conditions: pH 7.4, 22 °C, up to 48 h
CHO-hNTS1R cells = test: Confocal microscopy at live CHO-hNTS1R cells; format: cell-based, Chinese hamster; conditions: for unspecific binding: 22–25 °C, in the presence of 1 (100-fold excess)

CC[C@H](C)[C@H](NC(=O)[C@H](Cc1ccc(O)cc1)NC(=O)[C@@H]1CCCN1C(=O)[C@H](CCCNC(=N)N)NC(=O)[C@@H](N)CCCNC(=N)NC(=O)NCCCCNC(=O)CCCCCN1\C(=C/C=C/C=C/C2=[N+](CCCCS(=O)(=O)[O-])c3ccccc3C2(C)C)C(C)(C)c2cc(S(=O)(=O)O)ccc21)C(=O)N[C@@H](CC(C)C)C(=O)O [compound 6, N-(N-[4-{N-(6-[3,3-Dimethyl-6-sulfonato-2-{5-(3,3-dimethyl-1-[4-sulfonatobutyl]-3H-indol-1-ium-2-yl)penta-2,4-dien-1-ylidene}indolin-1-yl]hexanoyl)amino}butyl]aminocarbonyl)-Arg-Arg-Pro-Tyr-Ile-Leu bis(hydrotrifluoroacetate)]
stability [1]: excellent stabilities
unspecific binding (CHO-hNTS1R cells): very low

CC[C@H](C)[C@H](NC(=O)[C@H](Cc1ccc(O)cc1)NC(=O)[C@@H]1CCCN1C(=O)[C@H](CCCNC(=N)N)NC(=O)[C@@H](N)CCCNC(=N)NC(=O)NCCOCCOCCNC(=O)CCCCCN1\C(=C/C=C/C=C/C2=[N+](CCCCS(=O)(=O)[O-])c3ccccc3C2(C)C)C(C)(C)c2ccccc21)C(=O)N[C@@H](CC(C)C)C(=O)O [compound 11]
stability [1]: excellent stabilities
unspecific binding (CHO-hNTS1R cells): very low

CC[C@H](C)[C@H](NC(=O)[C@H](Cc1ccc(O)cc1)NC(=O)[C@@H]1CCCN1C(=O)[C@H](CCCNC(=N)N)NC(=O)[C@@H](N)CCCNC(=N)NC(=O)NCCOCCOCC[n+]1c(C)cc(/C=C/C=C/c2ccc(N(C)C)cc2)cc1C)C(=O)N[C@@H](CC(C)C)C(=O)O [compound 14]
stability [1]: minor decomposition after incubation times >24 h
unspecific binding (CHO-hNTS1R cells): very low

CC[C@H](C)[C@H](NC(=O)[C@H](Cc1ccc(O)cc1)NC(=O)[C@@H]1CCCN1C(=O)[C@H](CCCNC(=N)NC(=O)NCCOCCOCCNC(=O)CCCCCN1/C(=C/C=C/C=C/C2=[N+](CCCCS(=O)(=O)[O-])c3ccccc3C2(C)C)C(C)(C)c2cc(S(=O)(=O)O)ccc21)NC(=O)[C@@H](N)CCCNC(=N)N)C(=O)N[C@@H](CC(C)C)C(=O)O [compound 17]
stability [1]: excellent stabilities

CCNC(=O)CCCCCN1/C(=C/C=C/C=C/C2=[N+](CCCCS(=O)(=O)[O-])c3ccccc3C2(C)C)C(C)(C)c2cc(S(=O)(=O)O)ccc21 [compound 20]
cellular uptake (CHO-hNTS1R cells; 200 nM, 22-25 °C, CHO-hNTS1R cells): no uptake
